Test results reported in the CheMixHub viscosity set.
± gives the uncertainty stated by the source.

Assay: xn = mol fraction of the nth substance listed

COCCOCCOC + CCCO
viscosity [mPa·s]
Conditions	298.15 K	308.15 K	318.15 K
101 kPa, x1 = 0.0121	1.856 ± 0.056	1.451 ± 0.045	–
101 kPa, x1 = 0.0768	1.559 ± 0.048	1.243 ± 0.039	–
101 kPa, x1 = 0.1011	1.451 ± 0.019	1.173 ± 0.015	0.956 ± 0.013
101 kPa, x1 = 0.1288	1.399 ± 0.043	1.144 ± 0.036	–
101 kPa, x1 = 0.1895	1.272 ± 0.04	1.052 ± 0.034	–
101 kPa, x1 = 0.1997	1.243 ± 0.016	1.021 ± 0.013	0.847 ± 0.011
101 kPa, x1 = 0.2359	1.213 ± 0.038	1.004 ± 0.032	–
101 kPa, x1 = 0.2801	1.183 ± 0.037	0.971 ± 0.031	–
101 kPa, x1 = 0.3029	1.115 ± 0.014	0.927 ± 0.012	0.779 ± 0.011
101 kPa, x1 = 0.3162	1.133 ± 0.036	0.951 ± 0.031	–
101 kPa, x1 = 0.3322	1.12 ± 0.036	0.939 ± 0.031	–
101 kPa, x1 = 0.3923	1.08 ± 0.034	0.918 ± 0.03	–
101 kPa, x1 = 0.4025	1.046 ± 0.014	0.878 ± 0.012	0.743 ± 0.01
101 kPa, x1 = 0.4477	1.051 ± 0.034	0.899 ± 0.029	–
101 kPa, x1 = 0.4978	1.032 ± 0.033	0.886 ± 0.029	–
101 kPa, x1 = 0.5004	1.01 ± 0.013	0.852 ± 0.011	0.729 ± 0.01
101 kPa, x1 = 0.5784	1.011 ± 0.033	0.871 ± 0.029	–
101 kPa, x1 = 0.5992	0.988 ± 0.013	0.838 ± 0.011	0.717 ± 0.01
101 kPa, x1 = 0.6325	1.003 ± 0.032	0.854 ± 0.028	–
101 kPa, x1 = 0.6934	0.975 ± 0.013	0.828 ± 0.011	0.709 ± 0.01
101 kPa, x1 = 0.7544	0.991 ± 0.032	0.86 ± 0.028	–
101 kPa, x1 = 0.8004	0.971 ± 0.012	0.825 ± 0.011	0.709 ± 0.01
101 kPa, x1 = 0.813	0.991 ± 0.032	0.862 ± 0.028	–
101 kPa, x1 = 0.8974	0.981 ± 0.013	0.836 ± 0.011	–
101 kPa, x1 = 0.9026	0.993 ± 0.032	0.863 ± 0.028	–
101 kPa, x1 = 0.9638	0.996 ± 0.032	0.867 ± 0.029	–
101 kPa, x2 = 0.0194	0.996 ± 0.032	0.867 ± 0.029	–
101.33 kPa, x1 = 0.0064	1.913 ± 0.015	–	–
101.33 kPa, x1 = 0.0122	1.881 ± 0.015	–	–
101.33 kPa, x1 = 0.0238	1.816 ± 0.014	–	–
101.33 kPa, x1 = 0.0358	1.756 ± 0.014	–	–
101.33 kPa, x1 = 0.0546	1.671 ± 0.013	–	–
101.33 kPa, x1 = 0.0803	1.567 ± 0.013	–	–
101.33 kPa, x1 = 0.1176	1.443 ± 0.012	–	–
101.33 kPa, x1 = 0.1632	1.333 ± 0.011	–	–
101.33 kPa, x1 = 0.2064	1.251 ± 0.01	–	–
101.33 kPa, x1 = 0.2619	1.177 ± 0.01	–	–
101.33 kPa, x1 = 0.2976	1.14 ± 0.009	–	–
101.33 kPa, x1 = 0.3254	1.119 ± 0.009	–	–
101.33 kPa, x1 = 0.3716	1.086 ± 0.009	–	–
101.33 kPa, x1 = 0.4168	1.065 ± 0.009	–	–
101.33 kPa, x1 = 0.4652	1.038 ± 0.009	–	–
101.33 kPa, x1 = 0.5109	1.024 ± 0.009	–	–
101.33 kPa, x1 = 0.5509	1.009 ± 0.008	–	–
101.33 kPa, x1 = 0.5982	0.994 ± 0.008	–	–
101.33 kPa, x1 = 0.6569	0.984 ± 0.008	–	–
101.33 kPa, x1 = 0.711	0.976 ± 0.008	–	–
101.33 kPa, x1 = 0.7757	0.975 ± 0.008	–	–
101.33 kPa, x1 = 0.819	0.976 ± 0.008	–	–
101.33 kPa, x1 = 0.8649	0.977 ± 0.008	–	–
101.33 kPa, x1 = 0.9094	0.984 ± 0.008	–	–
101.33 kPa, x1 = 0.9425	0.989 ± 0.008	–	–
101.33 kPa, x1 = 0.9722	0.988 ± 0.008	–	–
